Laboratory results: the METLIN SMRT retention time set (Domingo-Almenara et al. 2019)

Assay: gradient 5% acetonitrile 3 min, to 50% in 2 min, to 85% in 15 min, held 3 min, 100 µL/min
Settings: column: Zorbax Extend-C18 2.1 x 50 mm; eluents: water / acetonitrile, 0.1% formic acid
In short: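 In both positive and negative ionization mode, a quadrupole time-of-flight mass spectrometer coupled to HPLC analyzed pure standards run in mixtures of ~100 molecules. The Zorbax Extend-C18 column (2.1 × 50 mm, 1.8 μm) was operated at 100 μL/min with water and acetonitrile, each containing 0.1% formic acid. The dead volume was 40 μL and the dwell volume 900 μL. Retention time came from adduct peaks that were computationally picked and individually inspected by hand.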

| Structure (SMILES) | RP-LC retention time |
| --- | --- |
| Cc1ccc(C(=O)N2CCc3sc(C(=O)N4CCC5(CC4)OCCO5)cc3C2)cc1 | 793 s |
| CC(C)C(=O)Nc1ccc2c(c1)nc(CN1CCCC1)n2C(C)C | 602 s |
| COc1ccc(CNC(=O)C2(C)Cn3nc(C)cc3C(=O)N2c2ccc(F)cc2)cc1 (stereo unspecified) | 764 s |
| Cc1ccccc1OCC(=O)N1CCC2(CC1)NC(=O)N(Cc1ccccc1Cl)C2=O | 909 s |
| Cn1c(=O)c(N2CCCC(C(=O)NCCCN3CCC(N4CCCCC4)CC3)C2)nc2cccnc21 (stereo unspecified) | 568 s |
| COc1ccc(F)cc1-c1cc(N2CCN(C(=O)NCC(C)C)CC2)ncn1 | 645 s |
| O=C(Cn1cnc2nc(N3CCCC(C(=O)NC4CC4)C3)sc2c1=O)Nc1cccc(Cl)c1 (stereo unspecified) | 665 s |
| COc1cc2c(Nc3ccc(Br)cc3F)ncnc2cc1OCC1CCN(C)CC1 | 644 s |
| O=C(Cn1c(=O)oc2ccccc21)Nc1nc(-c2ccc(Cl)cc2)cs1 | 1020 s |
| O=c1[nH]c2ccc(S(=O)(=O)N3CCN(c4nc5ccccc5[nH]4)CC3)cc2o1 | 522 s |
| COC(=O)c1ccc(NC(=O)C(=O)NCCOc2ccc(F)cc2)cc1 | 870 s |
| COc1ccc(Cl)cc1NC(=O)CSc1ccc(N2CCCC(C(=O)NC3CC3)C2)nn1 (stereo unspecified) | 753 s |
| COc1ccc(C(C)NC(=O)C2=C3CCCN3c3ccc(F)cc3S2(=O)=O)cc1 (stereo unspecified) | 899 s |
| COc1ccc(CCS(=O)(=O)NCC(c2cccn2C)N2CCOCC2)cc1 (stereo unspecified) | 594 s |
| CCOc1ccccc1NC(=O)N1CCC2(CC1)NC(=O)c1ccccc1N2C | 807 s |
| COc1ccc2[nH]cc(CCNC(=O)C34CCC=C3N(C3CCCC3)C(=O)CC4)c2c1 (stereo unspecified) | 798 s |
| CC(C)CN1CCn2cc(C(=O)NCc3cccc(Br)c3)nc2C1 | 656 s |
| CC(C)NC(=O)C1CCN(S(C)(=O)=O)c2cc(Cl)ccc2O1 (stereo unspecified) | 777 s |
| Cc1nc2c(ccc3nc(NC(=O)c4ccc(Cl)s4)sc32)s1 | 986 s |
| COc1ccc(S(=O)(=O)N2CCCC(C(=O)N3CCC(Cc4ccccc4)CC3)C2)cc1Cl (stereo unspecified) | 1170 s |
| Cc1cc(C)nc(SCc2nnc(SCC(=O)Nc3nccs3)o2)n1 | 600 s |
| CCCOc1nc2ccccc2nc1N1CCCC(C(=O)NC2CCCCC2C)C1 (stereo unspecified) | 1310 s |

More lines, now with the values ahead:

| RP-LC retention time | Structure (SMILES) |
| --- | --- |
| 672 s | O=C(CCn1cnc2cc(-c3noc(-c4cccs4)n3)ccc21)N1CCOCC1 |
| 787 s | Cc1cccc(-c2nc(N3CCOCC3)ncc2C(=O)O)c1 |
| 784 s | Cc1ccn2cc(-c3cccc(S(=O)(=O)N4CC(C)CC(C)C4)c3)nc2c1 (stereo unspecified) |
| 875 s | Cc1ccc(CN2CCCn3nc(C(=O)NCc4ccc(C)o4)cc3C2=O)cc1 |
| 646 s | Cn1cnc(S(=O)(=O)N2CCCCC2c2nc(-c3ccncc3)n[nH]2)c1 (stereo unspecified) |
| 836 s | Cc1ccc(C)c(C(=O)N2C[C@H](c3nc(-c4cccnc4)no3)[C@@H](C)C2)c1 |
| 689 s | O=C(c1ccc(F)cc1)N1CCC(n2c(-c3ccco3)nc3cccnc32)C1 (stereo unspecified) |
| 661 s | CCn1c(=O)c(NCc2ccc(F)cc2Cl)nc2ccncc21 |
| 974 s | Cc1ccc(CN2N=C(C(=O)N3CCCCC3)S(=O)(=O)c3ccccc32)cc1 |
| 745 s | Cc1ccc(C(C)NC(=O)c2ccc(-c3cccnc3)nc2)c(C)c1 (stereo unspecified) |
| 865 s | CCN(CC)c1ccc(-c2noc(CN3CCN(c4cccc(C)c4)CC3)n2)cn1 |
| 926 s | Fc1cc(F)cc(Cc2nc3nccc(-c4ccccc4)n3n2)c1 |
| 922 s | CCOc1ccc(C(=O)N2CCC3(CC2)N=C(c2ccc(Cl)cc2)NO3)cc1 |
| 639 s | Cn1cc(CCNC(=O)Nc2ccc3c(c2)OCCO3)c2cccnc21 |
